# Measured values from US4639468A, “Derivatives of glycinamide, their preparation and their use” (priority 1979, dated 1987).
# Where two headings read alike, the source gives them in different places.
# Columns and labels:
# [1] = system: convulsions induced by bicuculline; test: animal or person; settings: for ED50: Mus musculus; for DL50/DE50 (therapeutical index): Table III; for bicuculline (score: sum of animals protected by dosages of 10 and 100 mgr/kg): oral, 5 mice each, 3 hours before bicuculline 0.6 mgr/kg i.v., tonic convulsions
# Procedure: The anticonvulsive effect was examined for tonic convulsions induced by bicuculline. The compounds of the invention were administrated orally at dosages of 10 and 100 mgr/kg, each to 5 mice, 3 hours before intravenous injection of bicuculline at the dosage of 0.6 mgr/kg. The number of mice protected against tonic convulsions and the number of dead mice were noted.
# Amongst the substances according to the invention, 2-n-pentylaminoacetamideand its hydrochloride were more particularly studied. […] The hydrochloride was also administered intravenously. […] Table III also gives the therapeutical index (LD50/ED50).
# [2] = system: mice; test: in vivo; settings: oral, mice; Table II
# [3] = system: decarboxylase glutamate (GAD); test: activity of decarboxylase glutamate (GAD) in homogenizates of rat brain; type: biochemical; settings: 10^-4 M
# Procedure: The substances of the invention have the property of inhibiting convulsions induced by bicculline in mouse. […] As a matter of fact, bucuculline is a specific antoganist of GABA. Besides, the effect of the products on the activity of the GABA synthesis enzyme, decarboxylase glutamate (GAD), was studied. The activity of the GAD was determined in homogenizates of rat brain according to the method described by L. Parker (Methods in Enzymology, Ed. S. Fleischer, 1974, Vol. XXXII, part V., p. 779). […] In general, the products of the invention […] the activity of the […] (GABA-T), enzyme of GABA catabolism, which results in an increase of the GABA levels at the level of GABA-ergic neurons.
# [4] = system: convulsions induced by strychnine; test: convulsions induced by strychnine; settings: in vivo
# [5] = system: convulsions due to leptazol; test: convulsions due to leptazol in mouse; type: in vivo
# [6] = system: central serotoninergic system; test: potentiation of the effects of 1-trypthophan in mouse; type: in vivo
# [7] = in vivo; settings: mouse, in vivo, po, read-out: DL50 (the source's name)
# [8] = system: convulsions due to picrotoxine; test: convulsions due to picrotoxine; settings: in vivo
# From the text: (3) 2-n-pentylaminoacetamide hydrochloride has no effect on the convulsions due to picrotoxine.
# [9] = system: GAD; test: GAD activity after oral administration in rat; type: in vivo; settings: 200 mgr/kg per os
# [10] = system: GABA-T; test: GABA-T activity after oral administration in rat; type: in vivo; settings: 200 mgr/kg per os
# [11] = system: GABA rate of the black substance; test: GABA rate of the black substance after oral administration in rat; type: in vivo; settings: 200 mgr/kg per os, 4 hours after treatment
# [12] = system: accumulation of lactate in the brain; test: cerebral anoxia caused by decapitation of rat: lactate in the brain; type: in vivo; settings: first seconds of anoxia caused by decapitation
# From the text: This activity very likely explains itself by an effect on the cerebral energetic metabolism during anoxia. This effect on the cerebral energetic metabolism has been confirmed for 2-n-pentylaminoacetamide hydrochloride in a series of experiments on cerebral anoxia caused by decapitation of rat.
# [13] = system: mouse; test: passive prevention (memory) in mouse; type: in vivo; settings: 50 mgr/kg intraperitoneally
# From the text: This product and very likely other compounds of the invention thus improve mnesic retention.
# [14] = system: platelet agglutination; test: inhibition of platelet agglutination in human plasma (turbidimetric method of Born and Cross, Trombofax); type: cell-based; settings: human plasma rich in platelets, preincubated 3 minutes before Trombofax
# Procedure: The measure of the inhibition of platelet agglutination is made according to the turbidimetric method of G. V. R. Born and M. J. Cross (J. Physiol. 168, 178, […]). The plasma rich in platelets is preincubated for 3 minutes before introduction of the inductor agent, Trombofax. The inhibion of the maximum amplitude of agglutination is measured by means of Upchurch agglutometer. In this test, compounds 1, 11, 14 and 18 have shown as being active.
smiles,measurement,setting,value
"CCCCCNCC(N)=O [Compound 3, 2-n-pentylaminoacetamide]",ED50,"[1]; iv, 3 h, read-out: DE50",11.2 mg/kg
same,ED50,[1]; po,11.2 mg/kg
same,antagonist action against convulsions due to bicuculline on increase of the bicuculline doses,[1]; increased bicuculline doses,may be overcome by an increase of the bicuculline doses
same,competition with bicuculline,"[1]; mouse, in vivo",competes with bicuculline
same,DL50/DE50 (therapeutical index),[1]; mouse,172
same,bicuculline (score: sum of animals protected by dosages of 10 and 100 mgr/kg),[1],7
same,DL50,[2],1925 mg/kg
same,effect on the activity of GAD,[3],particularly remarkable
same,activity against convulsions induced by strychnine,[4],inactive
same,inhibition of convulsions due to leptazol,[5],only slightly inhibits
same,effect on the effects of 1-trypthophan,[6],potentiates the effects of 1-trypthophan
"CCCCCNCC(N)=O.Cl [Compound 33, 2-n-pentylaminoacetamide hydrochloride]",ED50,[1]; iv,2.19 mg/kg
same,ED50,"[1]; iv, 3 h, read-out: DE50",5.74 mg/kg
same,ED50,[1]; po,5.74 mg/kg
same,absorption from the intestinal tractus,"[1]; mouse, in vivo",excellent absorption from the intestinal tractus
same,DL50/DE50 (therapeutical index),[1]; mouse,390
same,bicuculline (score: sum of animals protected by dosages of 10 and 100 mgr/kg),[1],6
same,LD50,"[7]; mice, Table II",2880 mg/kg
same,LD50,[7]; Table III,2240 mg/kg
same,effect on the activity of GAD,[3],particularly remarkable
same,effect on the convulsions due to picrotoxine,[8],no effect
same,potentiation of the GAD activity,[9],26%
same,effect on GABA-T,[10],without modifying
same,increase of GABA rate of the black substance,[11],38%
same,accumulation of lactate in the brain,[12],prevents accumulation of lactate in the brain
"CCCCCCCCNCC(N)=O [Compound 1, 2-n-octylaminoacetamide]",bicuculline (score: sum of animals protected by dosages of 10 and 100 mgr/kg),[1],4
same,LD50,"[7]; mice, Table II",2220 mg/kg
same,behaviour extinction in passive prevention,[13],delayed the behaviour extinction
same,inhibition of platelet agglutination,[14],active
